Data: article PMC5938755 (Biochemistry, 2018)

Biological target: phosphotriesterase from Sphingobium sp. TCM1 (Sb-PTE) (Sphingobium sp. TCM1, UniProt A0A077JBW9)
Experiment: steady-state kinetics, release of p-nitrophenol
Assay type: biochemical
Details: 50 mM HEPES/K+, pH 8.5, 30 °C; only aryl ester hydrolysis followed

Row | SMILES | Km
1 | COP(=O)(OC)Oc1ccc([N+](=O)[O-])cc1 [compound 3, dimethyl p-nitrophenyl phosphate] | 760 ± 50 µM
2 | CCOP(=O)(OCC)Oc1ccc([N+](=O)[O-])cc1 [compound 11, paraoxon] | 83 ± 9 µM
